The structures appear in SMILES notation. Positions of bridges follow the written chain, without caps; N, C: chain ends. Non-standard residues stand in square brackets, D forms with d. Residues, ends and D or L forms follow the SMILES beside them.

Series [1] in a line: Acute and 7-day repeat dose toxicity study. Type of series: in vivo, rat. An excerpt:
That is, all animals remained clinically normal throughout.

Another series deals with focal ischemic lesion. Briefly: Intraluminal thread model of ischaemia reperfusion injury (MCAo 90 minutes). Type of series: in vivo, rats. Here is the method:
The intraluminal thread (ILT) model is representative of clinical ischaemia reperfusion injury, it gives a focal ischemic lesion and is widely used in the pharmaceutical industry to test candidate compounds for neuroprotective efficacy. Fed, male Sprague Dawley rats (Charles Rivers, approximately 330 g) were anaesthetized with 2% halothane in 70/30 % N2O/O2 and the left middle cerebral artery occluded (MCAo) for 90 minutes using the ILT approach. The MCAo is achieved by the placement of a 3/0 nylon suture into the internal carotid artery and advancing it approximately 18 mm from the carotid bifurcation such that its tip is positioned approximately 1 mm beyond the origin of the MCA. […]
Throughout the surgical period, rectal temperature was monitored and maintained at 37°C with a heated blanket and feedback rectal temperature probe and arterial blood gases were measured prior to and immediately post MCAo. […]
The ischemic damage was assessed by conventional magnetic resonance imaging (T2, diffusion and proton density sequences) on day 1, 2 and 3 post MCAo. […]
After the final MR analysis at 72 hour post ictus the rats were decapitated, the brains removed, stored fresh in cryo-protecting medium at -70°C prior to quantitative immunohistochemical analysis of infiltrating leukocytes (Figure 34). […]

Series [2] has as its system MCP-1 binding to heparin-coated agarose beads. Briefly: Competition with 125I-MCP-1 for heparin-coated agarose beads. The note with it: 10^-11 to 10^-4 M. An excerpt: Chemokines bind to glycosaminoglycans on the cell surface, which may facilitate chemokine receptor binding and subsequent signaling. […] This was followed by a monophasic displacement curve at concentrations of approximately 10^-7 to 10^-5 M MCP-1.

The target of the next series is T1, D2s dopamine receptors (Homo sapiens, UniProt P14416).
T1 construct: purchased RBI/Sigma D-179; host or cells: membranes
Briefly: Competition of 3H-spiperone binding to membranes. The following applies: 100 µM highest concentration tested. How it is done: For dopamine receptor binding, membranes (D-179, RBI/Sigma) are diluted into binding buffer (75 mM Tris pH 7.4, 12.5 mM MgCl2 and 2 mM EDTA). For example, 10 µl of membranes are diluted in 500 µl of binding buffer (i.e., 1:50 dilution), which is aliquoted into labelled tubes. Cold competitor or test competitor is added, (e.g., 5 µl of 100x stock solution; 5 µl of 1 mM haloperidol solution (H-100, RBI/Sigma in DMSO). Radioligand is then added (^3H-Spiperone, TRK 818, Amersham, 250 µCi in 250 µl, 10.5 µM at 95 Ci/mmol). For competition studies, 0.5 nM is used. A 100x stock (i.e., 50 nM) is made by diluting the commercial stock 1:210 in binding buffer, and 5 µl is added to every tube. Control tubes have radioligand but no membranes. The mixtures are vortexed, then spun very briefly. The mixtures are then incubated for 1 hour at 27°C in a water bath. The mixture is filtered through GF/C filters over a vacuum. Each filter is pre-soaked in polyethyleneimine (0.3% in water; add 1 ml of 10% stock (P-261; RBI/Sigma) to 33 ml of MilliQ water). The tubes are washed with 2-3 ml of wash buffer (50 mM Tris pH 7.4) and the wash filtered. The filters are then rinsed with 3 × 5 ml of wash buffer, air dried, placed in a scintillation vial and 4.5 ml of scintillant added. The activity on the filter is then determined.

Series [3] in a line: Serum half-life of glucose conjugate after s.c. injection. Type of series: in vivo, rats. The following applies: unmodified peptide, comparison value. Here is the method:
To determine whether sugar conjugates of an agent of the invention had increased plasma half-lives, a glucose conjugate of CRD-Leu4Ile11Cys13 peptide 3(3-12)[MCP-1] was prepared and administered to rats. The conjugate was synthesized by mixing D-glucose (50 mM) and CRD-Leu4Ile11Cys13 peptide 3(3-12)[MCP-1] (1 mM) in phosphate buffered saline and incubating at room temperature for 16 hours. The reaction mixture was then subject to analytical HPLC which indicated a yield of about 30%. The material was then treated with cyanoborohydride to effect reduction of the schiffs base linkage and stabilize the glucosides for purification. The stabilized glucosides were then subjected to preparative HPLC and the mono- and di-substituted glucosides prepared separately. The monoglucoside was obtained at >90% purity in approximately 10% yield, and it is likely that the material is a mixture of Lys5-glucoside and Lys-7 glucoside.
The CRD-Leu4Ile11Cys13 peptide 3(3-12)[MCP-1] monoglucoside was injected into 3 rats (5 mg per rat via s.c. route in sterile PBS). Blood samples were withdrawn through an i.v. cannula at various time points, and CRD-Leu4Ile11Cys13 peptide 3(3-12)[MCP-1] glucoside was quantitated in the serum.

T1 sequence (P14416 1-414 isoform P14416-2): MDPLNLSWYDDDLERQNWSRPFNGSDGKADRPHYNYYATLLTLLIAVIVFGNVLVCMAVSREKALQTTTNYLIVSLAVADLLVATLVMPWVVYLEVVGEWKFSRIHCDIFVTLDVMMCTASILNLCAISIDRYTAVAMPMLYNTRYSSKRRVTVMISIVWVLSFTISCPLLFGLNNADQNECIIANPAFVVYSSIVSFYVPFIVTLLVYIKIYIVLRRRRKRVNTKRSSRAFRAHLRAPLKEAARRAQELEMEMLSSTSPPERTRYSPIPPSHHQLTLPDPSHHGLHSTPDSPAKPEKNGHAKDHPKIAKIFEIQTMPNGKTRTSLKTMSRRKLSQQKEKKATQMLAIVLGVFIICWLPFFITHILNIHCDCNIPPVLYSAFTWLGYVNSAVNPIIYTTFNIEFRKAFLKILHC

As to `CC[C@@H](C)[C@H]1NC(=O)[C@@H](CCC(N)=O)NC(=O)[C@H](N)CSSC[C@H](C(N)=O)NC(=O)[C@@H](CC(C)C)NC(=O)[C@@H](CC(=O)O)NC(=O)[C@H]2CCCN2C(=O)[C@@H](CCCCN)NC(=O)[C@@H](CCC(N)=O)NC(=O)[C@@H](CCCCN)NC(=O)[C@@H](Cc2c[nH]c3ccccc23)NC1=O` (H-[dC][dQ][dI][dW][dK][dQ][dK][dP][dD][dL][dC]-NH2; disulfide 1-11), in series [1] (1 or 10 mg (5-50 mg/kg) i.v.), the “acute toxicity (in words)” value is “no clinically detectable changes”. Further, the “7-day repeat dose toxicity (in words)” value in series [1] (subcutaneous osmotic mini-pump, about 43 µg/hr for 7 days (7.2 mg)) was “no dose dependent or clinically significant changes”. In the series on focal ischemic lesion (2 mg/kg bolus, then 0.5 mg/kg/hr i.v. for 72 hours, all time points, p < 0.0001), the “reduction in the mean infarct volume” value is recorded as 50%. Further, the “neutrophil accumulation in the penumbra of the lesion (in words)” value in the series on focal ischemic lesion (rat, in vivo) was “complete suppression”. Also, in series [2], the “displacement of MCP-1 from heparin-coated agarose beads (in words)” value is listed as “did not result in displacement”. For the same molecule, the “ED50 for competition of spiperone binding to short splice variant D2 dopamine receptor” value at D2s dopamine receptors is more than 100 µM. This molecule displayed a T1/2α in series [3] of 15 min.

These data come from patent EP2386565A2, “Compounds and methods to inhibit or augment an inflammatory response” (Cambridge Enterprise Ltd., priority 1999, dated 2000).
